# Test results from US20020119898A1, “Fabric cleaning system” (Unilever Home & Personal Care USA, Division of Conopco, Inc., priority 2000, published 2002).
# Experiment: pKa of Brönsted acidic or basic functional groups of the fluorescer
# Format: physicochemical
# Conditions: functional groups comprised in the fluorescer
# Source text: In addition, a preferred group of […] can be described by the presence and pKa of certain functional groups in the fluorescer. Therefore, a preferred group of hydrophilic fluorescers comprises fluorescers having at least one or more Brönsted acidic, basic functional groups or mixtures thereof with a pKa of 7 or less. A Brönsted acidic functional group is generally defined as a —AH group having a pKa of 7 or less for the equilibrium dissociation constant Ka=[—A][H′]/[—AH]. Likewise a Brönsted basic functional group is generally defined as a —B group, the conjugate acid of it (i.e. BH^+) having a pKa of 7 or less for the equilibrium dissociation constant Ka=[—B][H^+]/[—BH^+]. Examples of acidic functional groups include sulphonate, carboxylate, sulphate, phosphate, phosphonate and phosphinate. Examples of basic functional groups include amino groups, primary, secondary and tertiary amine groups.
structure (smiles),measurement,value
O=S(=O)([O-])c1ccccc1C=Cc1ccc(-c2ccc(C=Cc3ccccc3S(=O)(=O)[O-])cc2)cc1.[Na+].[Na+] [TINOPAL™ CBS-X],pKa of functional groups,< 7
